According to patent US12521395B2, “Gem-disubstituted heterocyclic compounds and their use as IDH inhibitors” (NERVIANO MEDICAL SCIENCES S.R.L., priority 2019, dated 2026):

Columns and labels:
[1] = tested on: cell lines HT-1080 (IDH1^R132C); experiment: Cellular assay: inhibition of 2HG production, LC-MS/MS; type: cell-based; details: Homo sapiens, 72 hr incubation, 2-HG in cell culture media, read-out: HT1080 2-HG IC50
Protocol: Cell lines HT-1080 (commercially available) are maintained in E-MEM 10% FCS and incubated at 37° C. in a humidified 5% CO2 atmosphere.
Cells are seeded into 96 well black flat bottom plates at a density of 500 cells/well in 100 μL complete medium. After 24 hr the medium is replaced with 200 μL of fresh medium and compounds (dissolved into DMSO) are administrated to the cells using D300E Digital Dispenser (Tecan).
After 72 hr of incubation 100 μL from each well are collected and used for 2HG (R(−)-2-hydroxyglutarate) quantification. Levels of 2-HG in cell culture media are determined by LC-MS/MS. Cell supernatants (100 μL/well) are treated with 1 M aqueous trichloroacetic acid containing 130 μM of the internal standard 2-HG-d3 (20 μL/well) in a 96-well plate. The plates are sealed, mildly vortexed for 60 minutes, centrifuged at 4,000 RPM for 15 minutes, placed in a refrigerated autosampler taking care not to shake them, and aliquots of the upper part of the samples are directly injected in the chromatographic system. Calibration standards are obtained by ten folds dilution of aqueous 2-HG stock solutions with blank cell culture medium and denatured exactly in the same way as described above for samples. Samples and standards are assayed for 2-HG by reversed phase chromatography on a C18 column eluted with aqueous 0.15% formic acid and briefly washed with 90% methanol at the end of the run. 2-HG is determined by negative ion electrospray ionization with the internal standard method on a triple quadrupole mass spectrometer monitoring the MRM transitions 147>129 (2-HG) and 150>132 (2-HG-d3).
2-HG inhibition was calculated by comparing treated versus control data using Assay Explore (Symyx) software, with IC50 determined using a sigmoidal fitting algorithm.

[2] = target: IDH1^R132C (Homo sapiens, UniProt O75874, R132C); experiment: NADPH depletion assay (diaphorase/resazurin), IDH1 R132C; type: biochemical; details: IDH1^R132C 2 nM, alpha-ketoglutarate 0.14 mM; read-out: IDH1^R132C IC50
IDH1^R132C, sequence (O75874 whole entry R132C, canonical isoform): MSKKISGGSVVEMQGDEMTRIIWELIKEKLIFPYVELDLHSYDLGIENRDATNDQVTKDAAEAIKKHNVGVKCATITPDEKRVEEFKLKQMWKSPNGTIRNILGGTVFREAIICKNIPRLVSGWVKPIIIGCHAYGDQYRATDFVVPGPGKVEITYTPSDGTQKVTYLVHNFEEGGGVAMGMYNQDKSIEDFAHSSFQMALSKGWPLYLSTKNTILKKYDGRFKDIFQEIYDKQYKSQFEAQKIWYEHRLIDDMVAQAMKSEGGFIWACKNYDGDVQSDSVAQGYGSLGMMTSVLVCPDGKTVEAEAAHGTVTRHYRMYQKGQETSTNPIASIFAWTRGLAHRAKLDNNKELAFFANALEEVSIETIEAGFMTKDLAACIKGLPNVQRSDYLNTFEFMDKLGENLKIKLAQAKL
Protocol: (§1) IDH mutated enzyme activity converting alpha-ketoglutarate to 2-hydroxyglutaric acid is measured using a NADPH depletion assay. In the assay the remaining cofactor is measured at the end of the reaction with the addition of a catalytic excess of diaphorase and resazurin, to generate a fluorescent signal in proportion to the amount of NADPH remaining. IDH1 WT enzyme as well as mutated isoforms IDH1^R132H, IDH1^R132C, and IDH2^R172K enzymes are commercially available proteins (see e.g. Sino Biological, Abcam, Active Motif or Creative BioMart).
(§2) IDH1^R132H homodimer enzyme are diluted to 8 nM, in 10 μL of Assay Buffer (150 mM NaCl, 50 mM Tris-HCl pH 7.6, 10 mM MgCl2, 0.001% Triton X-100, 4 mM β-mercaptoethanol); 0.2 μL of test compound, previously serially diluted 1 to 3, >10 experimental points from 1 mM in DMSO, is added and the mixture is incubated for 15 minutes at room temperature. The reaction is started with the addition of 10 μL of Substrate Mix (12 μM NADPH, 3.4 mM alpha-ketoglutarate in Assay Buffer) and the mixture is incubated for 60 minutes at room temperature. The reaction is terminated with the addition of 5 μl of Detection Buffer (100 μg/mL diaphorase, 30 μM resazurin, in IX Assay Buffer), and is incubated for 15 minutes before reading on a ViewLux as platereader at Ex544/Em590.
Compounds are assayed for their activity against IDH1^R132C following the same assay as above with the following modifications: IDH1^R132C and alpha-ketoglutarate final concentrations in the Assay Buffer is 2 nM and 0.14 mM, respectively.

[3] = target: IDH1^R132H (Homo sapiens, UniProt O75874, R132H); experiment: NADPH depletion assay (diaphorase/resazurin), IDH1 R132H; type: biochemical; details: 15 min preincubation, 60 min reaction, room temperature
IDH1^R132H, sequence (O75874 whole entry R132H): as the sequence (O75874 whole entry R132C, canonical isoform) above, with C132H counted along it
Protocol: as §1, §2

[4] = target: T1, IDH2^R172K (Homo sapiens, UniProt P48735, R172K); experiment: NADPH depletion assay (diaphorase/resazurin), IDH2 R172K; type: biochemical; details: IDH2^R172K 16 nM, alpha-ketoglutarate 0.55 mM
T1 sequence (P48735 40-452 R172K): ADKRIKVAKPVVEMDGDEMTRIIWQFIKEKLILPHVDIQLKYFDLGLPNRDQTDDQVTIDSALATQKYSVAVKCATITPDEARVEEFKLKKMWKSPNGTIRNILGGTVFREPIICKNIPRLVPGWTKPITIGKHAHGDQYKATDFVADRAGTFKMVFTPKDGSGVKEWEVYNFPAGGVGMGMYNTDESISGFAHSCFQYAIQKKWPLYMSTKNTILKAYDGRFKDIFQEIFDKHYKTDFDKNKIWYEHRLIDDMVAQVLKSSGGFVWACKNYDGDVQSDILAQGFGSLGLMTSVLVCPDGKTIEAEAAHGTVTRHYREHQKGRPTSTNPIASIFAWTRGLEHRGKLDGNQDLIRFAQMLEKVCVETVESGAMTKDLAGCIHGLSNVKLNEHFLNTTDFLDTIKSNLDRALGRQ
Protocol: as §1, §2
Compounds are assayed for their activity against IDH2^R172K following the same assay as above with the following modifications: IDH2^R172K and alpha-ketoglutarate final concentrations in the Assay Buffer is 16 nM and 0.55 mM, respectively.

[5] = target: IDH1 wild type enzyme (Homo sapiens, UniProt O75874); experiment: Enzymatic assay for IDH1 wild-type (NADPH forming assay); type: biochemical; details: 0.016 nM IDH1WT, 15 min preincubation
IDH1 wild type enzyme, sequence (O75874 whole entry): as the sequence (O75874 whole entry R132C, canonical isoform) above, with C132R counted along it
Protocol: IDH1WT enzymatic activity converting isocitric acid to alpha-ketoglutarate is measured using a NADPH forming assay. In the assay the forming cofactor is measured in continuous with the addition of a catalytic excess of diaphorase and resazurin, to generate a fluorescent signal in proportion to the amount of NADPH forming.
Compounds were preincubated with the enzyme, then the reaction was started by the addition of NADP+, isocitrate, diaphorase and a corresponding substrate, resazurin. Diaphorase reduces resazurin to the highly fluorescent resorufin with the concomitant oxidation of NADPH to NADP. Specifically, 0.2 μL of test compound, previously serially diluted 1 to 3, >10 experimental points from 1 mM in DMSO, was added to 0.016 nM IDH1WT enzyme in 10 μL of Assay Buffer (150 mM NaCl, 50 mM Tris-HCl pH 7.6, 10 mM MgCl2, 0.001% Triton X-100, 4 mM β-mercaptoethanol); the mixture is incubated for 15 minutes at room temperature. The reaction is started with the addition of 10 μL of Substrate Mix (400 μM NADP^+, 40 μM iso-citrate, 5 ugr/mL Diaphorase and 7 μM resazurin in Assay Buffer), the mixture is incubated at room temperature and the reaction is reading on a ViewLux as platereader at Ex544/Em590 in continuous.

Structure (SMILES) | IC50 [1] [nM] | IC50 [2] [nM] | IC50 [3] [nM] | IC50 [4] [nM] | IC50 [5] [nM]
C=CC(=O)N1CCN(C2(c3ccc([C@H](C)Nc4ncc5ccc(=O)n(C(C)C)c5n4)cc3)CCOCC2)CC1 [cpd 1, 2-{[(1S)-1-{4-[4-(4-acryloylpiperazin-1-yl)tetrahydro-2H-pyran-4-yl]phenyl}ethyl]amino}-8-(propan-2-yl)pyrido[2,3-d]pyrimidin-7(8H)-one] | 2.4 | 3.3 | 3.5 | 111 | 133
C=CC(=O)N1CCN(C(CC)(CC)c2ccc([C@H](C)Nc3ncc4ccc(=O)n(C(C)C)c4n3)cc2)CC1 [cpd 4, 2-{[(1S)-1-{4-[3-(4-acryloylpiperazin-1-yl)pentan-3-yl]phenyl}ethyl]amino}-8-(propan-2-yl)pyrido[2,3-d]pyrimidin-7(8H)-one] | 0.6 | 1.7 | 3.8 | 22.8 | 313
C=CC(=O)N1CCN(C2(c3ccc([C@H](C)Nc4cc5c(ccc(=O)n5C(C)C)cn4)cc3)CCOCC2)CC1 [cpd 11, 7-{[(1S)-1-{4-[4-(4-acryloylpiperazin-1-yl)tetrahydro-2H-pyran-4-yl]phenyl}ethyl]amino}-1-(propan-2-yl)-1,6-naphthyridin-2(1H)-one] | 2.6 | 4.8 | 6.4 | 291 | 364
C=CC(=O)N1CCN(C2(c3ccc([C@H](C)Nc4ncc5ccc(=O)n(C(C)C)c5n4)cc3)CCC(F)(F)CC2)CC1 [cpd 26, 2-{[(1S)-1-{4-[1-(4-acryloylpiperazin-1-yl)-4,4-difluorocyclohexyl]phenyl}ethyl]amino}-8-(propan-2-yl)pyrido[2,3-d]pyrimidin-7(8H)-one] | 0.5 | 2 | 3 | 126 | 126
C=CC(=O)N1CCN([C@@](C)(CN2CCOCC2)c2ccc([C@H](C)Nc3ncc4ccc(=O)n(C(C)C)c4n3)cc2)CC1 [cpd 43, 2-{[(1S)-1-{4-[(2R)-2-(4-acryloylpiperazin-1-yl)-1-(morpholin-4-yl)propan-2-yl]phenyl}ethyl]amino}-8-(propan-2-yl) pyrido[2,3-d]pyrimidin-7(8H)-one] | 3 | 15 |  |  | 
C=CC(=O)N1CCN(C2(c3ccc([C@H](C)Nc4cc5c(cn4)COC(=O)N5CC)cc3)CCOCC2)CC1 [cpd 44, 7-{[(1S)-1-{4-[4-(4-acryloylpiperazin-1-yl)tetrahydro-2H-pyran-4-yl]phenyl}ethyl]amino}-1-ethyl-1,4-dihydro-2H-pyrido[4,3-d][1,3]oxazin-2-one] | 4 | 9 |  |  | 
C=CC(=O)N1CCN(C2(c3ccc([C@H](C)Nc4cc5c(ccc(=O)n5C(C)C)cn4)cc3)CCC(F)(F)CC2)CC1 [cpd 47, 7-{[(1S)-1-{4-[1-(4-acryloylpiperazin-1-yl)-4,4-difluorocyclohexyl]phenyl}ethyl]amino}-1-(propan-2-yl)-1,6-naphthyridin-2(1H)-one] | 0.6 | 1 | 2 | 97 | 97.4
C=CC(=O)N1CCN(C2(c3ccc(C(C)(C)Nc4ncc5ccc(=O)n(C(C)C)c5n4)cc3)CCC(F)(F)CC2)CC1 [cpd 52, 2-[(2-{4-[1-(4-acryloylpiperazin-1-yl)-4,4-difluorocyclohexyl]phenyl}propan-2-yl)amino]-8-(propan-2-yl)pyrido[2,3-d]pyrimidin-7(8H)-one] | 4 | 9 | 14 | 322 | 321

Further lines, results first:

IC50 [1] [nM] | IC50 [2] [nM] | IC50 [3] [nM] | IC50 [4] [nM] | IC50 [5] [nM] | Structure (SMILES)
65 | 47 |  |  |  | C=CC(=O)N1CC(N(C)C2(c3ccc([C@H](C)Nc4cc5c(ccc(=O)n5C(C)C)cn4)cc3)CCOCC2)C1 [cpd 48, 7-{[(1S)-1-(4-{4-[(1-acryloylazetidin-3-yl)(methyl)amino]tetrahydro-2H-pyran-4-yl}phenyl)ethyl]amino}-1-(propan-2-yl)-1,6-naphthyridin-2(1H)-one]
3 | 17 |  |  |  | C=CC(=O)N1CCN(C2(c3ccc(C4(Nc5ncc6ccc(=O)n(C(C)C)c6n5)CC4)cc3)CCCC2)CC1 [cpd 49, 2-[(1-{4-[1-(4-acryloylpiperazin-1-yl)cyclopentyl]phenyl}cyclopropyl)amino]-8-(propan-2-yl)pyrido[2,3-d]pyrimidin-7(8H)-one]
10 | 5 | 20 | 516 | 516 | C=CC(=O)N1CC(N(C)C2(c3ccc([C@H](C)Nc4ncc5ccc(=O)n(C(C)C)c5n4)cc3)CCC(F)(F)CC2)C1 [cpd 50, 2-{[(1S)-1-(4-{1-[(1-acryloylazetidin-3-yl)(methyl)amino]-4,4-difluorocyclohexyl}phenyl)ethyl]amino}-8-(propan-2-yl) pyrido[2,3-d]pyrimidin-7(8H)-one]
2.4 | 7 |  |  |  | [2H]C([2H])=C([2H])C(=O)N1CCN(C2(c3ccc([C@H](C)Nc4ncc5ccc(=O)n(C(C)C)c5n4)cc3)CCOCC2)CC1 [cpd 51, 8-(propan-2-yl)-2-({(1S)-1-[4-(4-{4-[(^2H3)prop-2-enoyl]piperazin-1-yl}tetrahydro-2H-pyran-4-yl)phenyl]ethyl}amino) pyrido[2,3-d]pyrimidin-7(8H)-one]
40 | 28 |  |  |  | CC(C)n1c(=O)ccc2cnc(N[C@@H](C)c3ccc(C4(N(C)C5CN(C(=O)C(F)Cl)C5)CCC(F)(F)CC4)cc3)nc21 (stereo partly drawn) [cpd 53, 2-{[(1S)-1-(4-{1-[{1-[chloro(fluoro)acetyl]azetidin-3-yl}(methyl)amino]-4,4-difluorocyclohexyl}phenyl)ethyl]amino}-8-(propan-2-yl)pyrido[2,3-d]pyrimidin-7(8H)-one]
